Measurements taken from ChEMBL document CHEMBL1122011, “Synthesis of N-(carbonylamino)-1,2,3,6-tetrahydropyridines with analgesic, antiinflammatory, and hyperglycemic activity” (J Med Chem, 1982).

Key:
Rattus norvegicus [1] = test: (§1) % change in blood glucose concentration after 4 hr post treatment at 100 mg/kg, po; type: functional; set-up: unit: %
Mus musculus [2] = test: Analgesic activity in mice using phenylquinone writhing test at 30 mg/kg, sc dose; type: functional; conditions: route subcutaneous
Rattus norvegicus [3] = test: % change in blood glucose concentration after 2 hr post treatment at 100 mg/kg, po; type: functional; set-up: unit: %
Mus musculus [4] = test: Analgesic activity in mice using phenylquinone writhing test at 120 mg/kg, sc dose; type: functional; conditions: route subcutaneous
Rattus norvegicus [5] = test: Inhibitory against carrageenan induced paw edema in rat at 120 mg/kg, sc dose after 3h; type: functional; conditions: route subcutaneous
Rattus norvegicus [6] = test: Inhibitory against carrageenan induced paw edema in rat at 120 mg/kg, sc dose after 5 hr; type: functional; conditions: route subcutaneous
Mus musculus [7] = test: Analgesic activity in mice using phenylquinone writhing test at 10 mg/kg, sc dose; type: functional; conditions: route subcutaneous
Rattus norvegicus [8] = test: % change in blood glucose concentration after 4 hr post treatment at 30 mg/kg, po; type: functional
Mus musculus [9] = test: Analgesic activity in mice using phenylquinone writhing test at 10 mg/kg, sc dose. 2 mg/kg Noxolone was prior to compound injection; type: functional
Rattus norvegicus [10] = test: % change in blood glucose concentration after 2 hr post treatment at 17 mg/kg, po; type: functional
Mus musculus [11] = test: Analgesic activity in mice using phenylquinone writhing test at 0.0075 mg/kg, sc dose; type: functional; conditions: route subcutaneous
Rattus norvegicus [12] = test: % change in blood glucose concentration after 4 hr post treatment at 53 mg/kg, po; type: functional
Rattus norvegicus [13] = test: % change in blood glucose concentration after 2 hr post treatment at 41 mg/kg, po; type: functional
Mus musculus [14] = test: Analgesic activity in mice using phenylquinone writhing test at 25 mg/kg, sc dose; type: functional; conditions: route subcutaneous
Mus musculus [15] = test: Analgesic activity in mice using phenylquinone writhing test at 50 mg/kg, sc dose; type: functional; conditions: route subcutaneous
Mus musculus [16] = test: Analgesic activity in mice using phenylquinone writhing test at 60 mg/kg, sc dose; type: functional; conditions: route subcutaneous
Mus musculus [17] = species on record: Mus musculus; test: animal or person; conditions: sc, read-out: Inhibition
Description: Analgesic activity in mice using phenylquinone writhing test at 0.038 mg/kg, sc dose

Rattus norvegicus [18] = test: % change in blood glucose concentration after 2 hr post treatment at 50 mg/kg, po; type: functional
Mus musculus [19] = test: Analgesic activity in mice using phenylquinone writhing test at 0.00075 mg/kg, sc dose; type: functional; conditions: route subcutaneous
Rattus norvegicus [20] = test: % change in blood glucose concentration after 4 hr post treatment at 60 mg/kg, po; type: functional
Mus musculus [21] = test: Inhibitory against carrageenan induced paw edema in mice at 128 mg/kg, sc dose after 5 hr; type: functional; conditions: route subcutaneous
Mus musculus [22] = test: Inhibitory against carrageenan induced paw edema in mice at 128 mg/kg, sc dose after 3h; type: functional; conditions: route subcutaneous
Mus musculus [23] = test: Analgesic activity in mice using phenylquinone writhing test at 128 mg/kg when administered subcutaneously; type: functional; conditions: sc, route subcutaneous
Rattus norvegicus [24] = test: % change in blood glucose concentration after 4 hr post treatment at 128 mg/kg, po; type: functional
Rattus norvegicus [25] = test: % change in blood glucose concentration after 2 hr post treatment at 128 mg/kg, po; type: functional
Mus musculus [26] = test: Inhibitory against carrageenan induced paw edema in mice at 12 mg/kg, sc dose after 3h; type: functional; conditions: route subcutaneous
Mus musculus [27] = test: Inhibitory against carrageenan induced paw edema in mice at 12 mg/kg, sc dose after 5 hr; type: functional; conditions: route subcutaneous
Mus musculus [28] = test: Analgesic activity in mice using phenylquinone writhing test at 56 mg/kg, sc dose; type: functional; conditions: route subcutaneous
Mus musculus [29] = test: Analgesic activity in mice using phenylquinone writhing test at 3 mg/kg, sc dose. 0.6 mg/kg Noxolone was prior to compound injection; type: functional
Mus musculus [30] = test: Analgesic activity in mice using phenylquinone writhing test at 3mg/kg, sc dose; type: functional
Mus musculus [31] = test: Effective dose in mouse hotplate test at 55+/-0.5 degree Centigrade after 30 min of dosing; type: functional; conditions: 0.5 h
Rattus norvegicus [32] = test: Inhibitory against carrageenan induced paw edema in rat at 128 mg/kg, sc dose after 3h; type: functional; conditions: route subcutaneous
Rattus norvegicus [33] = test: Inhibitory against carrageenan induced paw edema in rat at 128 mg/kg, sc dose after 5 hr; type: functional; conditions: route subcutaneous
Rattus norvegicus [34] = test: as §1; type: functional
Mus musculus [35] = test: Analgesic activity in mice using phenylquinone writhing test at 14.5 mg/kg, sc dose; type: functional; conditions: route subcutaneous
Mus musculus [36] = test: Analgesic activity in mice using phenylquinone writhing test at 16.5 mg/kg, sc dose; type: functional; conditions: route subcutaneous
Rattus norvegicus [37] = test: % change in blood glucose concentration after 2 hr post treatment at 36.5 mg/kg, po; type: functional

| Compound | Hyperglycemic activity (Rattus norvegicus [1]) | inhibition in vivo at 30 mg/kg (Mus musculus [2]) [%] | Hyperglycemic activity (Rattus norvegicus [3]) | also measured |
| --- | --- | --- | --- | --- |
| CC(C)(C)C(=O)NN1CC=CCC1 | 101 | 100 | 70 |  |
| O=C(CCc1ccccc1)NN1CC=CCC1 | 25 |  | 27 | inhibition in vivo at 120 mg/kg (Mus musculus [4]): 42%; inhibition in vivo at 120 mg/kg (Rattus norvegicus [5]): 83%; inhibition in vivo at 120 mg/kg (Rattus norvegicus [6]): 83% |
| O=C(NN1CC=CCC1)c1ccco1 | 182 | 99 | 181 | inhibition in vivo at 10 mg/kg (Mus musculus [7]): 98.4%; Hyperglycemic activity (Rattus norvegicus [8]): 50; Inhibition (Mus musculus [9]): 99.2%; Hyperglycemic activity (Rattus norvegicus [10]): 50; inhibition in vivo at 0.0075 mg/kg (Mus musculus [11]): 50% |
| O=C(COc1ccccc1)NN1CC=CCC1 |  |  |  | Hyperglycemic activity (Rattus norvegicus [12]): 50; Hyperglycemic activity (Rattus norvegicus [13]): 50; inhibition in vivo at 25 mg/kg (Mus musculus [14]): 50%; inhibition in vivo at 120 mg/kg (Rattus norvegicus [5]): 83%; inhibition in vivo at 120 mg/kg (Rattus norvegicus [6]): 80% |
| O=C(NN1CC=CCC1)C12C[C@H]3C[C@@H](C1)C[C@@H](C2)C3 | 22 | 86 | 33 |  |
| CC(=O)Oc1ccccc1C(=O)O [ASPIRIN] |  |  |  | inhibition in vivo at 50 mg/kg (Mus musculus [15]): 50% |
| Cn1cccc1C(=O)NN1CC=CCC1 | 25 | 90 | 35 |  |
| O=C(Cc1ccc2c(c1)OCO2)NN1CC=CCC1 | 21 |  | 7 | inhibition in vivo at 60 mg/kg (Mus musculus [16]): 80%; inhibition in vivo at 120 mg/kg (Rattus norvegicus [5]): 0%; inhibition in vivo at 120 mg/kg (Rattus norvegicus [6]): 0% |
| CN1CC[C@]23c4c5ccc(O)c4O[C@H]2[C@@H](O)C=C[C@H]3[C@H]1C5 |  |  |  | inhibition in vivo at 0.038 mg/kg (Mus musculus [17]): 50% |
| O=C(NN1CC=CCC1)C1CCCC1 | 22 | 98 | 54 |  |
| O=C(NN1CC=CCC1)C1CCCCCC1 | 82 | 98 | 100 | Hyperglycemic activity (Rattus norvegicus [18]): 50; inhibition in vivo at 0.00075 mg/kg (Mus musculus [19]): 50%; Hyperglycemic activity (Rattus norvegicus [20]): 50 |
| O=C(COc1cccc2ccccc12)NN1CC=CCC1 | 14 | 76 | 9 |  |
| O=C(NN1CC=CCC1)C1CC1 | 111 | 100 | 66 |  |
| O=C(NN1CC=CCC1)c1cccc[n+]1[O-] |  |  |  | inhibition in vivo at 128 mg/kg (Mus musculus [21]): 0%; inhibition in vivo at 128 mg/kg (Mus musculus [22]): 34%; inhibition in vivo at 128 mg/kg (Mus musculus [23]): 55%; Hypoglycemic activity (Rattus norvegicus [24]): <20; Hypoglycemic activity (Rattus norvegicus [25]): <20 |
| CC(=O)NN1CC=CCC1 | 36 | 99 | 35 |  |
| COc1ccc2c(c1)c(CC(=O)O)c(C)n2C(=O)c1ccc(Cl)cc1 [INDOMETHACIN] |  |  |  | inhibition in vivo at 12 mg/kg (Mus musculus [26]): 17%; inhibition in vivo at 12 mg/kg (Mus musculus [27]): 83% |
| CCC(=O)O[C@](Cc1ccccc1)(c1ccccc1)[C@H](C)CN(C)C [PROPOXYPHENE] |  |  |  | inhibition in vivo at 56 mg/kg (Mus musculus [28]): 50% |
| CCOC(=O)NN1CC=CCC1 | 91 | 99 | 27 | Inhibition (Mus musculus [29]): 86%; inhibition in vivo at 3 mg/kg (Mus musculus [30]): 85.6%; ED50 (Mus musculus [31]): 19.5 mg/kg |
| O=C(Cc1cccnc1)NN1CC=CCC1 |  |  | 0 | inhibition in vivo at 128 mg/kg (Rattus norvegicus [32]): 50%; inhibition in vivo at 128 mg/kg (Rattus norvegicus [33]): 50%; Hypoglycemic activity (Rattus norvegicus [34]): -6; inhibition in vivo at 14.5 mg/kg (Mus musculus [35]): 50% |
| O=C(NN1CC=CCC1)c1cccc(C(=O)NN2CC=CCC2)n1 | 10 | 60 | -8 |  |
| O=C(NN1CC=CCC1)c1cccs1 | 64 | 77 | 116 |  |
| O=C(NN1CC=CCC1)C1CCCCC1 |  |  |  | Hyperglycemic activity (Rattus norvegicus [12]): 50; inhibition in vivo at 16.5 mg/kg (Mus musculus [36]): 50%; inhibition in vivo at 120 mg/kg (Rattus norvegicus [5]): 50%; inhibition in vivo at 120 mg/kg (Rattus norvegicus [6]): 84%; Hyperglycemic activity (Rattus norvegicus [37]): 50 |
